Source: patent publication US10508092B2, “Synthesis of novel analogs of diptoindonesin G, compounds formed thereby, and pharmaceutical compositions containing them” (Wisconsin Alumni Research Foundation, priority 2016, dated 2019)
Values joined by “and” are separate entries in the source; they are usually repeats but may differ in a detail not shown here. Identical values can stand only once.

Experiments:
[1] = tested on: estrogen receptor β (ERβ); assay: Western blot of FLAG-ERβ levels in Hs578T-ERβLuc Dox-inducible cells; assay type: cell-based, human; conditions: Hs578T-ERβLuc Dox-inducible line, 10 μM, 5 days, Western blot (anti-FLAG)
Description: FIGS. 2A, 2B, and 2C together depict the biological activity of the subject compounds on estrogen receptor β (ERβ) levels in human breast cancer cells.
The biological activity of these four analogs were then compared with the parent compound Dip G following our previous protocol (Zhao et al., supra). See FIGS. 1A, 1B, 1C, 2A, 2B, and 2C. Cells were treated with each compound at 10 μM concentration in order to evaluate how well each modified the stability of ERα and ERβ.
MCF7 cells were treated with Dip G and analogs for 24 hours before harvesting. Hs578T-tet-on-ERβ cells (ATCC HTB-126; American Type Culture Collection, Manassas, Va.) were treated with doxycycline for 24 hours to induce ERβ expression. Then the cells were treated with compounds for 5 days before harvesting. 15 μg of total cell lysates were resolved on SDS-PAGE and Western blot analyses were performed as previously described using ERα antibody (HC-20, Santa Cruz Biotechnology, Inc., Dallas, Tex.) and anti-FLAG antibody (F7425, Sigma-Aldrich Co., LLC, St. Louis, Mo.) for ERβ.^3

[2] = patients, high dose administration of fulvestrant (500 mg); cited from earlier work

In the case of `O=C1c2c(O)cc(O)cc2-c2c(-c3ccccc3)oc3cc(O)cc1c23` [Compound 14], the ERβ stability [1] is reported as “moderately stabilized” and the melting point is reported as > 260 °C.

In the case of `C[C@]12CC[C@@H]3c4ccc(O)cc4C[C@@H](CCCCCCCCC[S+]([O-])CCCC(F)(F)C(F)(F)F)[C@H]3[C@@H]1CC[C@@H]2O` (stereo partly drawn) [fulvestrant], the peak plasma concentration [2] is given as ~20 ng/ml and ~30 nM.
